These are literature values, as cited in US20050003341A1, “Drug discovery assays based on the biology of atherosclerosis, cancer, and alopecia” (priority 2003, published 2005).

Read-outs that look alike come from different tables or passages of the source.

In data set [1] the test system is ERK.
Data set [2] relates to papilla cells. Particulars: 14 days; testosterone 345 nM, DHT 345 mM as printed.
Data set [3] relates to Moloney murine leukemia virus (MMuLV); Rous sarcoma virus (RSV). The settings on record: chick embryo fibroblasts.
The test system of data set [4] is AR mRNA. Particulars: 50 μg/ml, 4 hours.
Data set [5] relates to AR mRNA. The settings on record: LNCaP cells (Lin 2001).

Take `C[C@]12CC[C@H]3[C@@H](CCC4=CC(=O)CC[C@@]43C)[C@@H]1CC[C@@H]2O` [Testosterone, testosterone]: the ERK phosphorylation entry in data set [1] (a variety of cells, cited studies) is recorded as “increase”. For the same compound, in data set [2], the papilla cell proliferation result is reported as “significantly decreased”.
As for `C/C=C/C/C=C/CCC(=O)[C@H]1O[C@H]1C(N)=O` [cerulenin], in data set [3], the “Rous sarcoma virus (RSV) production” value was “inhibited”.
`C[C@@H]1C[C@@H]([C@H](O)CC2CC(=O)NC(=O)C2)C(=O)[C@@H](C)C1` [cycloheximide]: the “increase in AR mRNA” value in data set [4] was 1.7 ± 0.4 fold.
Turning to IL-6: interleukin 6, the ERK phosphorylation result in data set [1] (LNCaP cells (Chen T 1999)) was “increased”. In addition, in data set [5], the “AR mRNA” value is on record as “decreased”.
